Legend:
[1] = system: Swiss Albino mice; assay: In vivo pulmonary toxicity, lung histopathology with semiquantitative scoring (SQS)
Description: The animal study was approved by the Monash Animal Ethics Committee, Monash University (Victoria, Australia). All experiments were conducted in accordance with the Australian Code of Practice for the Care and Use of Animals for Scientific Purposes. Swiss Albino mice (female; age, 6 weeks; body weight, 20 to 25 g) were obtained from the Monash Animal Research Platform (Clayton, Victoria, Australia). […] Animals were housed individually in metabolic cages and had free access to food and water. Mice were intratracheally administered 10 mg/kg of polymyxin B, 120 mg/kg of polyaspartic acid and the combinations of polyaspartic acid with polymyxin B three times a day.
Histopathological examinations of lungs were performed to assess the pulmonary toxicity by polymyxin B. At 24 h following pulmonary administration, mice were humanely killed and lungs were harvested and fixed in formalin immediately. To avoid any potential artificial damage to the lung epithelium, bronchoalveolar lavage and cardiac puncture were not performed. A semiquantitative scoring (SQS) system was employed to quantify the extent of lung damages. ^20 Briefly, we used the following grades for the severity and nature of the histopathological changes in the lungs: grade 0, no changes or mild changes considered insignificant; grade 1, minimal lesions affecting 1 to 25% of the area; grade 2, multifocal lesions affecting 25 to 50% of the area; and grade 3, severe tissue changes affecting >50% of the area. The grades were given the following scores: grade 0, 0.1; grade 1, 1; grade 2, 4; and grade 3, 10. Percentages of damage across different levels of the lungs were given the following scores: <1%, 0; from 1 to <5%, 1; from 5 to <10%, 2; from 10 to <20%, 3; from 20 to <30%, 4; from 30 to <40%, 5; >40%, 6. The overall lung histology score was determined as the product of the grade and percent damage score. An SQS was assigned the following scores: SQS 0, no significant change; SQS+1, mild damage; SQS+2, mild to moderate damage; SQS+3, moderate damage; SQS+4, moderate to severe damage; and SQS+5, severe damage.

[2] = system: A549 cells; assay: Mitochondrial membrane potential (TMRE) in A549 cells; type: cell-based, Human; conditions: 1.0 mM polymyxin B alone; untreated control 100%
Description: (§1) The attenuation of mitochondrial superoxide formation and loss of mitochondrial membrane potential caused by polymyxin B were determined. ^18 A549 cells (0.5×10^5 cells/mL) were grown on 8-well chamber slides ([…] polymer coverslip, ibidi, Germany) for overnight at 37° C. Cells were treated with 1.0 mM polymyxin B in the presence and absence of polyaspartic acid (0.25, 1.0 and 5.0 mM). To assess the formation of mitochondrial superoxide and loss of mitochondrial membrane potential MitoSOX Red dye (Invitrogen; excitation and emission wavelengths of 514 and 531 to 622 nm, respectively) and TMRE (Invitrogen; excitation and emission wavelengths of 561 and 568 to 690 nm, respectively) were employed, respectively. Nuclei were stained with Hoechst 33342 (Invitrogen; excitation and emission wavelengths of 405 and 410 to 551 nm, respectively) to allow cell counting. Fluorescence intensity was quantified by confocal laser scanning microscopy (Leica SP8 inverted microscope equipped with a 63× oil immersion objective). The average fluorescence intensity per cell for each treatment was calculated using ImageJ (45, 46). Three random fields containing at least 50 cells per treatment condition were analyzed and the TMRE fluorescence in untreated control cells was set as 100%.

[3] = system: A549 cells; assay: Mitochondrial superoxide formation (MitoSOX Red) in A549 cells; type: cell-based, Human; conditions: 1.0 mM polymyxin B alone, 24 h
Description: as §1

[4] = system: A549 cells; assay: Cell viability of A549 cells, polymyxin B with or without polyglutamic acid, propidium iodide imaging; type: cell-based, Human; conditions: 1.0 mM polymyxin B alone, 24 h
Description: (§2) Human lung epithelial cells (A549 cells) were obtained from the American Type Culture Collection (ATCC® CCL-185™, Manassas, VA, USA), grown and sub-cultured in Dulbecco's modified Eagle's medium (DMEM) supplemented with 10% fetal bovine serum (FBS). A549 cells (1×10^5 cells/mL, 12-well plate) were seeded in supplemented DMEM at 37° C. in a humidified atmosphere containing 5% CO2 until 70% confluency. All experiments were conducted in three replicates. Cells were treated with 1.0 mM polymyxin B in the presence and absence of polyaspartic acid (0.25, 1.0 and 5.0 mM); and cell viability were examined at 24 h with flow cytometry after staining with propidium iodide. The drug concentrations for different formulations were selected based on our previous results on polymyxin toxicity in human lung epithelial cells. ^18 To assess the protective effect of polyglutamic acid, A549 cells (0.5×10^5 cells/mL, 200 μL/well) were seeded on 96-well plates (#353072, Corning, USA) for overnight at 37° C. Cells were treated with 1.0 mM polymyxin B in the presence and absence of polyglutamic acid (2.5, 5.0 and 10.0 μM). Cell viability was determined at 24 h using propidium iodide staining using EVOS® FL Auto Imaging System (Invitrogen; Approximate fluorescence excitation/emission maxima: 535/617 nm). […] Three random fields containing at least 50 cells per treatment condition were analyzed.

[5] = system: A549 cells; assay: Cell viability of A549 cells, polymyxin B with or without polyaspartic acid, propidium iodide flow cytometry; type: cell-based, Human; conditions: 1.0 mM polymyxin B alone, 24 h
Description: as §2

[6] = intratracheal three times a day, 10 mg/kg polymyxin B and/or 120 mg/kg polyaspartic acid, lungs at 24 h

What does the source list for polymyxin B sulfate?
Histological finding in lung [1, 6]: no macroscopic lesion but severe tissue injury; SQS of lung damage (grade) [1, 6]: +2 to +5; Lung area affected by tissue injury ([1]; intratracheal three times a day, 10 mg/kg polymyxin B or 120 mg/kg polyaspartic acid, lungs at 24 h): 25-50%; Overall semi-quantitative score (SQS) of lung damage ([1]; mean±SD, 10 mg/kg polymyxin B alone or co-administered with 120 mg/kg polyaspartic acid): 3.0±1.4; Mitochondrial membrane potential compared to the control [2]: 49.5±7.2%; MitoSOX fluorescence intensity, higher compared to the control [3]: > 200 fold; Cell viability [4]: 51.7±5.2%; Cell viability [5]: 36.7±5.1%
